Experimental data from PubChem BioAssay (NCI).
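Method: 48-hour compound exposure of cells in 96-well plates, five concentrations, linear interpolation of endpoints. GI50: concentration for 50% inhibition of growth. TGI: concentration producing complete growth inhibition.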

How the values were obtained:
Experiment in all cases: NCI tumour cell line growth inhibition, 48 h
DU-145 prostate = system: DU-145 prostate
MOLT-4 leukemia = system: MOLT-4 leukemia
OVCAR-5 ovarian = system: OVCAR-5 ovarian
HCT-116 colon = system: HCT-116 colon
ACHN renal = system: ACHN renal
SNB-19 CNS = system: SNB-19 CNS
NCI-H522 lung = system: NCI-H522 lung
SK-OV-3 ovarian = system: SK-OV-3 ovarian
CAKI-1 renal = system: CAKI-1 renal
PC-3 prostate = system: PC-3 prostate
U251 CNS = system: U251 CNS
HL-60(TB) leukemia = system: HL-60(TB) leukemia
HS 578T breast = system: HS 578T breast
KM12 colon = system: KM12 colon
OVCAR-3 ovarian = system: OVCAR-3 ovarian
T-47D breast = system: T-47D breast
RXF 393 renal = system: RXF 393 renal
MALME-3M melanoma = system: MALME-3M melanoma
COLO 205 colon = system: COLO 205 colon
HOP-62 NSCLC = system: HOP-62 NSCLC
RPMI-8226 leukemia = system: RPMI-8226 leukemia
OVCAR-8 ovarian = system: OVCAR-8 ovarian
NCI-H226 lung = system: NCI-H226 lung
BT-549 breast = system: BT-549 breast
IGROV1 ovarian = system: IGROV1 ovarian
UACC-257 melanoma = system: UACC-257 melanoma
SN12C renal = system: SN12C renal
HOP-92 NSCLC = system: HOP-92 NSCLC
SW-620 colon = system: SW-620 colon

Question: Which GI50 (DU-145 prostate) does the source give for `O=C1c2c(Cl)c(Cl)c(Cl)c(Cl)c2C(=O)C2(Cl)CC=CCC12Cl` (configuration not stated) here?
Answer: 1930 nM

Question: And the TGI (DU-145 prostate)?
Answer: 3360 nM

Question: And the GI50 (MOLT-4 leukemia)?
Answer: 2390 nM

Question: And the TGI (MOLT-4 leukemia)?
Answer: 6360 nM

Question: What about the GI50 (OVCAR-5 ovarian) of the same compound?
Answer: 2510 nM

Question: And the TGI (OVCAR-5 ovarian)?
Answer: 5740 nM

Question: And the GI50 (HCT-116 colon)?
Answer: 1760 nM

Question: And the TGI (HCT-116 colon)?
Answer: 3320 nM

Question: What about the GI50 (ACHN renal) of the same compound?
Answer: 1890 nM

Question: What about the TGI (ACHN renal) of the same compound?
Answer: 3370 nM

Question: What about the GI50 (SNB-19 CNS) of the same compound?
Answer: 1640 nM

Question: What about the TGI (SNB-19 CNS) of the same compound?
Answer: 3010 nM

Question: And the GI50 (NCI-H522 lung)?
Answer: 1760 nM

Question: What about the TGI (NCI-H522 lung) of the same compound?
Answer: 3520 nM

Question: What about the GI50 (SK-OV-3 ovarian) of the same compound?
Answer: 2920 nM

Question: And the TGI (SK-OV-3 ovarian)?
Answer: 10900 nM

Question: And the GI50 (CAKI-1 renal)?
Answer: 1930 nM

Question: What about the TGI (CAKI-1 renal) of the same compound?
Answer: 3680 nM

Question: What about the GI50 (PC-3 prostate) of the same compound?
Answer: 1800 nM

Question: What about the TGI (PC-3 prostate) of the same compound?
Answer: 3510 nM

Question: And the GI50 (U251 CNS)?
Answer: 1670 nM

Question: And the TGI (U251 CNS)?
Answer: 3060 nM

Question: What about the GI50 (HL-60(TB) leukemia) of the same compound?
Answer: 1900 nM

Question: And the TGI (HL-60(TB) leukemia)?
Answer: 5040 nM

Question: And the GI50 (HS 578T breast)?
Answer: 2040 nM

Question: And the TGI (HS 578T breast)?
Answer: 5880 nM

Question: And the GI50 (KM12 colon)?
Answer: 1840 nM

Question: What about the TGI (KM12 colon) of the same compound?
Answer: 3560 nM

Question: What about the GI50 (OVCAR-3 ovarian) of the same compound?
Answer: 2020 nM

Question: And the TGI (OVCAR-3 ovarian)?
Answer: 3480 nM

Question: And the GI50 (T-47D breast)?
Answer: 1740 nM

Question: What about the TGI (T-47D breast) of the same compound?
Answer: 4010 nM

Question: And the GI50 (RXF 393 renal)?
Answer: 1630 nM

Question: And the TGI (RXF 393 renal)?
Answer: 3010 nM

Question: And the GI50 (MALME-3M melanoma)?
Answer: 2030 nM

Question: And the TGI (MALME-3M melanoma)?
Answer: 4160 nM

Question: What about the GI50 (COLO 205 colon) of the same compound?
Answer: 1520 nM

Question: And the TGI (COLO 205 colon)?
Answer: 2890 nM

Question: What about the GI50 (HOP-62 NSCLC) of the same compound?
Answer: 1860 nM

Question: What about the TGI (HOP-62 NSCLC) of the same compound?
Answer: 3650 nM

Question: And the GI50 (RPMI-8226 leukemia)?
Answer: 2310 nM

Question: What about the TGI (RPMI-8226 leukemia) of the same compound?
Answer: 6120 nM

Question: What about the GI50 (OVCAR-8 ovarian) of the same compound?
Answer: 1640 nM

Question: What about the TGI (OVCAR-8 ovarian) of the same compound?
Answer: 3120 nM

Question: What about the GI50 (NCI-H226 lung) of the same compound?
Answer: 1970 nM

Question: What about the TGI (NCI-H226 lung) of the same compound?
Answer: 4880 nM

Question: What about the GI50 (BT-549 breast) of the same compound?
Answer: 1850 nM

Question: And the TGI (BT-549 breast)?
Answer: 3380 nM

Question: What about the GI50 (IGROV1 ovarian) of the same compound?
Answer: 1810 nM

Question: What about the TGI (IGROV1 ovarian) of the same compound?
Answer: 3860 nM

Question: And the GI50 (UACC-257 melanoma)?
Answer: 1530 nM

Question: What about the TGI (UACC-257 melanoma) of the same compound?
Answer: 2950 nM

Question: And the GI50 (SN12C renal)?
Answer: 1780 nM

Question: What about the TGI (SN12C renal) of the same compound?
Answer: 3220 nM

Question: What about the GI50 (HOP-92 NSCLC) of the same compound?
Answer: 2030 nM

Question: What about the TGI (HOP-92 NSCLC) of the same compound?
Answer: 3870 nM

Question: What about the GI50 (SW-620 colon) of the same compound?
Answer: 1490 nM
